Results reported in patent US11028058B2, “Heterocyclic compounds as adenosine antagonists” (NUVATION BIO INC., priority 2017, dated 2021).

Experiments:
adenosine A2A receptor = adenosine A2A receptor (Homo sapiens (Human), UniProt P29274); assay: A2A adenosine receptor radioligand binding competition assay (filter plates)
Procedure: Binding of selected compounds to the adenosine A2A, A1, A2B, and A3 receptors was tested using a binding competition assay.
The general protocol for the radioligand binding competition assay was as follows. Competition binding was performed in duplicate in the wells of a 96 well plate (Master Block, Greiner, 786201) containing binding buffer (optimized for each receptor), membrane extracts (amount of protein/well optimized for each receptor), radiotracer (final concentration optimized for each receptor), and test compound. Nonspecific binding was determined by co-incubation with 200-fold excess of cold competitor. The samples were incubated in a final volume of 0.1 mL at 25° C. for 60 minutes and then filtered over filter plates. Filters were washed six times with 0.5 mL of ice-cold washing buffer (optimized for each receptor) and 50 μL of Microscint 20 (Packard) were added on each filter. The filter plates were sealed, incubated 15 min on an orbital shaker and scintillation counted with a TopCount for 30 sec/filter.
(§1) For the A2A adenosine receptor radioligand binding assay, the following modifications were made to the general protocol. GF/C filters (Perkin Elmer, 6005174), presoaked in 0.01% Brij for 2 h at room temperature were used. Filters were washed six times with 0.5 mL of ice-cold washing buffer (50 mM Tris pH 7.4) and 50 μL of Microscint 20 (Packard) was added in each well. The plates were then incubated for 15 min on an orbital shaker and then counted with a TopCount™ for 1 min/well. Another radioligand binding assay was used to evaluate the binding affinity for the adenosine A2A receptor assay was performed in duplicate in the wells of a 384 plate. Assay buffer contained DPBS 500 mM, MgCl2 0.1 mM, and 1% DMSO. Membrane-bead suspension was prepared by mixing 25.98 μL of human adenosine A2A membrane preparation (Perkin Elmer, RBHA2AM400UA) at 33.4 μg/mL, 28 μL of ADA at 20 μg/mL, and 932 μL of SPA beads at 3.33 mg/mL) and incubated the mixture for 20 min at room temperature. Mixed 20 μL of radiotracer (^3H-SCH 58261) at 15 nM to each well containing test articles at various concentrations and centrifuge the plate at 1000 rpm for 1 minute. Added 30 μL of the membraine-bead suspension to each well. Sealed the plates and incubated for 1 hr at room temperature with vigorous mixing on a plate mixer. Plates were read on Microbeta^2 (Perkin Elmer, 2450-0010).

[1] = molecular target: T1, HEK-293 cells expressing human recombinant adenosine A2A receptor (Homo sapiens (Human), UniProt P29274); assay: cAMP assay, Assay 1 (HTRF kit); assay type: cell-based; details: HEK293, 100 nM, read-out: A2a cAMP (% inh @ 100 nM)
T1 sequence (P29274 whole entry): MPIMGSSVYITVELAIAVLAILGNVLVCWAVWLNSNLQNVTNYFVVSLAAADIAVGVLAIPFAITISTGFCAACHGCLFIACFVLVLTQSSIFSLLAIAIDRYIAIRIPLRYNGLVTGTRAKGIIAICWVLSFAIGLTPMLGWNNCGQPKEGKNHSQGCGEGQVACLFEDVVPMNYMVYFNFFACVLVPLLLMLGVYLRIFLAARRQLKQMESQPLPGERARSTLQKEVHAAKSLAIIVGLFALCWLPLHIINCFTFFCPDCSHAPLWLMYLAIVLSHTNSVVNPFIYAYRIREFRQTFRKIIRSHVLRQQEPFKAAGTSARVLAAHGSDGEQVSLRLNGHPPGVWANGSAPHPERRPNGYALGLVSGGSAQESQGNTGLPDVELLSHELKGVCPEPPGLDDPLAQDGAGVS
Procedure: (§2) The functional activity of compounds was tested using one of the two assays to detect the present of cAMP. Activation of G-protein coupled receptors (such as A2A) results in activation of adenylcyclase which converts ATP into cAMP which is used as a downstream signaling molecule. Therefore, molecules which act as GPCR (or specifically A2A receptor) antagonists cause a decrease in intracellular cAMP concentration.
(§3) Both assays used HEK-293 cells expressing human recombinant adenosine A2A receptor were grown prior to the test in media without antibiotic.
12 μL of cells were mixed with 6 μL of the test compound at increasing concentrations and then incubated for 10 min. Thereafter 6 μL of the reference agonist was added at a final concentration corresponding to the historical EC80. The plates were then incubated for 30 min at room temperature. After addition of the lysis buffer and 1 hour incubation, cAMP concentrations were estimated, according to the manufacturer specification, with the HTRF® kit.

[2] = molecular target: human adenosine A2A membrane preparation (Homo sapiens (Human), UniProt P29274); assay: Adenosine A2A receptor radioligand binding assay (SPA beads, 3H-SCH 58261, 384 plate); details: Table B1-2
Chain of human adenosine A2A membrane preparation (P29274 whole entry): as above
Procedure: as §1

[3] = molecular target: T1, HEK-293 cells expressing human recombinant adenosine A2A receptor; assay: cAMP assay, Assay 2 (Eu-cAMP tracer / ULight-anti-cAMP); assay type: cell-based; details: Assay 2
Procedure: as §2, §3
Assay 2 (Table B2-2): 100 nL of test articles at 100× of final concentration were transferred to assay plate by Echo. Cells were washed twice with 5 mL of PBS […]. After aspirating the PBS and adding 1.5 mL versine, cells were incubated at 37° C. for 2-5 min. After centrifugation, 4 mL of medium was added and adjusted cell density to 5,000 cells/well with Stimulation Buffer. 10 μL of cells were aliquoted to the assay plate, centrifuged at 1000 rpm for 1 minute, and incubated for 60 minutes at room temperature. 5 μL 4×Eu-cAMP tracer solution and 5 μL 4×Ulight™-anti-cAMP solution were added to assay plate, followed by centrifugation and 60-minute incubation at room temperature. Plates were read on EnVision.

Chain of adenosine A2A receptor (P29274 whole entry): as above

Row | SMILES | A2A radioligand binding competition assay % residual binding @ 3000 nM (adenosine A2A receptor) | inhibition at 0.1 µM [1] | also measured
1 | Nc1cnc(-c2cc(Cl)c3[nH]cnc3c2)c(-c2ccccc2)n1 [Compound No. 1.13, 5-(7-chloro-1H-benzo[d]imidazol-5-yl)-6-phenylpyrazin-2-amine] | 18% | 51% | A2A radioligand binding competition assay % residual binding @ 100 nM (adenosine A2A receptor): 83%; A2A radioligand binding competition assay % residual binding @ 300 nM (adenosine A2A receptor): 69%; A2A radioligand binding competition assay % residual binding @ 1000 nM (adenosine A2A receptor): 17%
2 | Nc1cnc(-c2cc(Cl)c(O)c(Cl)c2)c(-c2ccccc2)n1 [Compound 1.2, 4-(5-amino-3-phenylpyrazin-2-yl)-2,6-dichlorophenol] |  | 100% | A2A radioligand binding competition assay % residual binding @ 100 nM (adenosine A2A receptor): ND/ND/ND/62%
3 | Nc1cnc(-c2cc(Cl)c3ncccc3c2)c(-c2ccccc2)n1 [Compound No. 1.17, 5-(8-chloroquinolin-6-yl)-6-phenylpyrazin-2-amine] | 8/ND/ND/ND % | 99% | 
4 | Nc1cnc(-c2ccc3[nH]ccc3c2)c(-c2ccccc2)n1 [Compound No. 1.4, 5-(1H-indol-5-yl)-6-phenylpyrazin-2-amine] |  | 1.4% | 
5 | Nc1cnc(-c2ccc3ocnc3c2)c(-c2ccccc2)n1 [Compound No. 1.18, 5-(benzo[d]oxazol-5-yl)-6-phenylpyrazin-2-amine] | 100/ND/ND/ND % | 14% | 
6 | Nc1cnc(-c2ccc(O)cc2)c(-c2ccccc2)n1 [Compound No. 1.7, 4-(5-amino-3-phenylpyrazin-2-yl)phenol] |  | 100% | A2A radioligand binding competition assay % residual binding @ 300 nM (adenosine A2A receptor): ND/ND/100/ND %
7 | N#Cc1nc(-c2ccc3ncccc3c2)c(-c2ccccc2)nc1N [Compound 1.19, 3-amino-5-phenyl-6-(quinolin-6-yl)pyrazine-2-carbonitrile] | 4/ND/ND/ND % | 100% | 
8 | Nc1cnc(-c2ccc3nccnc3c2)c(-c2ccccc2)n1 [Compound No. 1.16, 6-phenyl-5-quinoxalin-6-yl-pyrazin-2-amine] | 80/ND/ND/ND % | 0% | 
9 | Nc1cnc(-c2ccc(O)c(Cl)c2)c(-c2ccco2)n1 [Compound No. 1.8, 4-(5-amino-3-(furan-2-yl)pyrazin-2-yl)-2-chlorophenol] |  | 100% | A2A radioligand binding competition assay % residual binding @ 300 nM (adenosine A2A receptor): ND/ND/39/ND %
10 | Nc1cnc(-c2ccc3ncccc3c2)c(-c2ccccc2)n1 [Compound No. 1.12, 6-phenyl-5-(quinolin-6-yl)pyrazin-2-amine] | 12% | 94% | A2A radioligand binding competition assay % residual binding @ 300 nM (adenosine A2A receptor): 66%; A2A radioligand binding competition assay % residual binding @ 1000 nM (adenosine A2A receptor): 12%
11 | CC(C)(C)c1cc(-c2ncc(N)nc2-c2ccccc2)ccc1O [Compound No. 1.6, 4-(5-amino-3-phenylpyrazin-2-yl)-2-tert-butylphenol] |  | 47% | 
12 | Cc1nc2cc(-c3ncc(N)nc3-c3ccccc3)ccc2[nH]1 [1.9, 5-(2-methyl-1H-benzo[d]imidazol-5-yl)-6-phenylpyrazin-2-amine] |  | 49% | 
13 | Cc1ccn(-c2nc(N)cnc2-c2cc(Cl)c3ncccc3c2)n1 [Compound No. 1.271, 5-(8-chloroquinolin-6-yl)-6-(3-methyl-1H-pyrazol-1-yl)pyrazin-2-amine] |  |  | IC50 [2]: 2.1 nM; IC50 [3]: 50 nM
14 | Cc1ncc(-c2nc(N)cnc2-c2cc(Cl)c3ncccc3c2)s1 [Compound 1.318, 5-(8-chloroquinolin-6-yl)-6-(2-methylthiazol-5-yl)pyrazin-2-amine] |  |  | IC50 [2]: 9.4 nM; IC50 [3]: 200 nM
15 | Cn1ccc(-c2nc(N)c(C#N)nc2-c2cc(Cl)c3ncccc3c2)n1 [Compound 1.309, 3-amino-6-(8-chloroquinolin-6-yl)-5-(1-methyl-1H-pyrazol-3-yl)pyrazine-2-carbonitrile] |  |  | IC50 [2]: 1.6 nM; IC50 [3]: 13.1 nM
